Results on one compound are retold here after paper PMC4429609 (Journal of medicinal chemistry, 2012).

Common to all, as to experiment: biochemical
One assay has as its target AKT1 (Homo sapiens, UniProt P31749). The conditions noted are these: read-out: % Inhibition at 1 μM, AKT1.
For a further assay, the target named is CDK1/cyclin B (Homo sapiens, UniProt P06493). Conditions: read-out: % Inhibition at 1 μM, CDK1/cyclin B.
The next assay has as its target CDK2/cyclin A (Homo sapiens, UniProt P24941). The conditions noted are these: read-out: % Inhibition at 1 μM, CDK2/cyclin A.
In a further assay the target is CHK1 (Homo sapiens, UniProt O14757). The conditions noted are these: read-out: % Inhibition at 1 μM, CHK1.
Another assay has as its target CHK2 (Homo sapiens, UniProt O96017). The conditions noted are these: read-out: % Inhibition at 1 μM, CHK2.
For the next assay, the target named is NEK11 (Homo sapiens, UniProt Q8NG66). Conditions: read-out: % Inhibition at 1 μM, NEK11.
Sequence of NEK11 (Q8NG66 whole entry, looked up): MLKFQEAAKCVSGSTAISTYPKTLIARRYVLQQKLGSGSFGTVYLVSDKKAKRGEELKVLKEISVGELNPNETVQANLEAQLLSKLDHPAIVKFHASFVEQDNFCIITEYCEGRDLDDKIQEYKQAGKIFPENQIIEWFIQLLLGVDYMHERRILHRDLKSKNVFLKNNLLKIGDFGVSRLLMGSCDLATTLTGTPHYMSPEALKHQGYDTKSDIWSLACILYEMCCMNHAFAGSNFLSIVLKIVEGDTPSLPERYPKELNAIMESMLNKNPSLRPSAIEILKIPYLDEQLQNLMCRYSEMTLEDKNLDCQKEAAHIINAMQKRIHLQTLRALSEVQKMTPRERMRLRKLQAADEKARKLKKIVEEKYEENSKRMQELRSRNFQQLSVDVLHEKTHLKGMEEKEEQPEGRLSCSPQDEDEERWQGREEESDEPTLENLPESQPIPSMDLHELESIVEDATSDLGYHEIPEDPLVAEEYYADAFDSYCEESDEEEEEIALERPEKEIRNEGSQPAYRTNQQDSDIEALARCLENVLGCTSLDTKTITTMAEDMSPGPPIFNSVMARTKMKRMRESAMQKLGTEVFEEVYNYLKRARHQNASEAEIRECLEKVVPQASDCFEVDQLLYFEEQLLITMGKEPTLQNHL
In the next assay the target is NEK6 (Homo sapiens, UniProt Q9HC98). Conditions: read-out: % Inhibition at 1 μM, NEK6.
Another assay concerns the target PLK1 (Homo sapiens, UniProt P53350). Conditions: read-out: % Inhibition at 1 μM, PLK1.
The target in a further assay is RET (Homo sapiens, UniProt P07949). The conditions noted are these: read-out: % Inhibition at 1 μM, RET.
Sequence of RET (P07949 29-1114): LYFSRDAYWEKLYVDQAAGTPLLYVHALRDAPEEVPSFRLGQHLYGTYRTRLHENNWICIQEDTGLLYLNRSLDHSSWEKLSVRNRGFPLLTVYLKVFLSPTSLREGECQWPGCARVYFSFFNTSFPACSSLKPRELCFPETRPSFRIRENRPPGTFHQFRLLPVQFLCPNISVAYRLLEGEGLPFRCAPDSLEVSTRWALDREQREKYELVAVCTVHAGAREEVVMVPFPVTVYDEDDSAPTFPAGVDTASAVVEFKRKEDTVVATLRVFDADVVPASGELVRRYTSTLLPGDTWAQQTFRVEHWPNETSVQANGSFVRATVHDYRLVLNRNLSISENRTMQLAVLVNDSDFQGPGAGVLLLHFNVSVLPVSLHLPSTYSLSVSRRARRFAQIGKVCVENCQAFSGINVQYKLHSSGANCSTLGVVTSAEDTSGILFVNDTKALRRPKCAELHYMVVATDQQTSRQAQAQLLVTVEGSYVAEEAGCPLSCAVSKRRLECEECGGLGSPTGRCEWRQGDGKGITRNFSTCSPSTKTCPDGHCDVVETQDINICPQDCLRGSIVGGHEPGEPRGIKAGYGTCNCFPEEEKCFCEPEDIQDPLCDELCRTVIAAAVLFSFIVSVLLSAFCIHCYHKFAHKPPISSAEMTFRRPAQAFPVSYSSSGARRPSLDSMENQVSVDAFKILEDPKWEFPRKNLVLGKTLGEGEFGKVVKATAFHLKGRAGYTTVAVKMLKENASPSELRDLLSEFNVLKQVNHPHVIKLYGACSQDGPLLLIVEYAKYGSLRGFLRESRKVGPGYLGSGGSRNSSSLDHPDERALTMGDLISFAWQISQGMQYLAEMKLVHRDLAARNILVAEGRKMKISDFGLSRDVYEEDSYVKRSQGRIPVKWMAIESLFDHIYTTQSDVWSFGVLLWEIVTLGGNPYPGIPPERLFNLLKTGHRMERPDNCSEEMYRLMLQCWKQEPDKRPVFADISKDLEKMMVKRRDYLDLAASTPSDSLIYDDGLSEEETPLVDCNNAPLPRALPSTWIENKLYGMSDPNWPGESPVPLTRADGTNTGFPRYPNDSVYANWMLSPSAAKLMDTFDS
The next assay deals with ROCK1 (Homo sapiens, UniProt Q13464). The conditions noted are these: read-out: % Inhibition at 1 μM, ROCK1.
Sequence of ROCK1 (Q13464 whole entry, looked up): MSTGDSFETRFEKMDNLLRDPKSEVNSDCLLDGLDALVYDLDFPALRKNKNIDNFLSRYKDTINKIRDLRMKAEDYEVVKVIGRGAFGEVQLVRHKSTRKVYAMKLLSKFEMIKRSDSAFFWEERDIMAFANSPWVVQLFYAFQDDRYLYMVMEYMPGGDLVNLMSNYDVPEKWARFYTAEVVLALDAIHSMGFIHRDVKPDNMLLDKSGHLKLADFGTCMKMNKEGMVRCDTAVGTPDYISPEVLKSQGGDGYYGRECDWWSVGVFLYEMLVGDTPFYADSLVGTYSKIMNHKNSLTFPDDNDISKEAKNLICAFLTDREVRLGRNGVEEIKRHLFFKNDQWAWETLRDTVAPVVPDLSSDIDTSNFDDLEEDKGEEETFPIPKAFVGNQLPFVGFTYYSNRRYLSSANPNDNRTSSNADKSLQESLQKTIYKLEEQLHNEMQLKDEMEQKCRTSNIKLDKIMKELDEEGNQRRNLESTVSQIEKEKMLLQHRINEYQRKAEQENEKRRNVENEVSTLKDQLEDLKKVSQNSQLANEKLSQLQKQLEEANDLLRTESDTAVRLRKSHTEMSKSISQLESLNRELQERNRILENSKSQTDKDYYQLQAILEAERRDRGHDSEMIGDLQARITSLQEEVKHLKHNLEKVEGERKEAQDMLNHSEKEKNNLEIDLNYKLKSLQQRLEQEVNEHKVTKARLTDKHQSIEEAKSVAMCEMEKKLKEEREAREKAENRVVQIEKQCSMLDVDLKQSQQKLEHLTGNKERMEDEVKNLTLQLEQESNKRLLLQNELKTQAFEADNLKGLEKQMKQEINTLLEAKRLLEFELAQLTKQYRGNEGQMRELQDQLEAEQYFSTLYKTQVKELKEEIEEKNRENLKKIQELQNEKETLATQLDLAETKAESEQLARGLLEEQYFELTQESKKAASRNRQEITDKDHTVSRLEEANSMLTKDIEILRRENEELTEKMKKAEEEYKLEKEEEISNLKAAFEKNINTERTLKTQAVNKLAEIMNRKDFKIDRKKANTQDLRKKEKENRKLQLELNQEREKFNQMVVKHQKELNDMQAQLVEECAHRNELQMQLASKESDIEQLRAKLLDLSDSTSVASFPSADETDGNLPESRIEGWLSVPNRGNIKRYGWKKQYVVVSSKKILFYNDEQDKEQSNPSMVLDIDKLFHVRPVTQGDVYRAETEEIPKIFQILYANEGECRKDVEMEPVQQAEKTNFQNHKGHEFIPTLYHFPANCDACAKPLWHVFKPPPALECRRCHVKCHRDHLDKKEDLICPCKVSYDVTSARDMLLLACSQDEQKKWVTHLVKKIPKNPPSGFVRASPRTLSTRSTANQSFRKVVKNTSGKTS
The target in a further assay is TRKA (Homo sapiens, UniProt P04629). Conditions: read-out: % Inhibition at 1 μM, TRKA.
Sequence of TRKA (P04629 33-796): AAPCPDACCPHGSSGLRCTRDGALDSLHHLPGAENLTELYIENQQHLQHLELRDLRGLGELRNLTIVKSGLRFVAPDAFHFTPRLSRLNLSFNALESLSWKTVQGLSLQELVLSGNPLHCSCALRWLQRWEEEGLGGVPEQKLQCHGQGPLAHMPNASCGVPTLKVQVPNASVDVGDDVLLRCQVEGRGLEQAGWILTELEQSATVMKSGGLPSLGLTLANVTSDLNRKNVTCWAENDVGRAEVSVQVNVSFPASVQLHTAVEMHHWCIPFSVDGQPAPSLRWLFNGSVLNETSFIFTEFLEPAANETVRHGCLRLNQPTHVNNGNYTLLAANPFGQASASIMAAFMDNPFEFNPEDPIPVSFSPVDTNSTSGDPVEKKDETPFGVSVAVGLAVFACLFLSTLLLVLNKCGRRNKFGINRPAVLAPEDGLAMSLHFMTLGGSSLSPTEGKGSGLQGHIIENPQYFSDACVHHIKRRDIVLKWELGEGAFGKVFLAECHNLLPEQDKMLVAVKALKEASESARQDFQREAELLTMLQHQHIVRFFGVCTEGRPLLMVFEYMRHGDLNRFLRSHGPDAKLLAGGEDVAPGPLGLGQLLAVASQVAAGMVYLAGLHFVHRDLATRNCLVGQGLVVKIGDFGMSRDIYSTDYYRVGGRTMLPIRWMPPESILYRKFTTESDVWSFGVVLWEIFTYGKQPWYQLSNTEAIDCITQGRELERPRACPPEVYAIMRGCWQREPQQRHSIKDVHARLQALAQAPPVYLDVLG
Another assay concerns the target WEE1 (Homo sapiens, UniProt P30291). The conditions noted are these: read-out: % Inhibition at 1 μM, WEE1.

Sequence of PLK1 (P53350 whole entry): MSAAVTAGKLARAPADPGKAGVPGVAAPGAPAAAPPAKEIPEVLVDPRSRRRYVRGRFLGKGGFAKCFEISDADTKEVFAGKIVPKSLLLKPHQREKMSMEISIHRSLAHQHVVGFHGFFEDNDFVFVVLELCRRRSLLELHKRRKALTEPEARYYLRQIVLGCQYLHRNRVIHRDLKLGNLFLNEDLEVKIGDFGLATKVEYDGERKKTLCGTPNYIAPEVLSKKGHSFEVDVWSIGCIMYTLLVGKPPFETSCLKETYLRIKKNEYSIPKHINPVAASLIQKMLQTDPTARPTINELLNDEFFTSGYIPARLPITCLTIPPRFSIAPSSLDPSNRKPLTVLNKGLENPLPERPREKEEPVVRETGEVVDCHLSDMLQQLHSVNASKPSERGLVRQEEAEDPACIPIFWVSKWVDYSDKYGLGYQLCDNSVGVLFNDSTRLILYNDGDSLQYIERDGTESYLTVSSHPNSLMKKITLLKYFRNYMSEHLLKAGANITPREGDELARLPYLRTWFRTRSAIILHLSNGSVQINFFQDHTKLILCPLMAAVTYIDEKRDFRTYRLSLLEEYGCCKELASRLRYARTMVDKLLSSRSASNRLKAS
Sequence of CHK2 (O96017 whole entry, looked up): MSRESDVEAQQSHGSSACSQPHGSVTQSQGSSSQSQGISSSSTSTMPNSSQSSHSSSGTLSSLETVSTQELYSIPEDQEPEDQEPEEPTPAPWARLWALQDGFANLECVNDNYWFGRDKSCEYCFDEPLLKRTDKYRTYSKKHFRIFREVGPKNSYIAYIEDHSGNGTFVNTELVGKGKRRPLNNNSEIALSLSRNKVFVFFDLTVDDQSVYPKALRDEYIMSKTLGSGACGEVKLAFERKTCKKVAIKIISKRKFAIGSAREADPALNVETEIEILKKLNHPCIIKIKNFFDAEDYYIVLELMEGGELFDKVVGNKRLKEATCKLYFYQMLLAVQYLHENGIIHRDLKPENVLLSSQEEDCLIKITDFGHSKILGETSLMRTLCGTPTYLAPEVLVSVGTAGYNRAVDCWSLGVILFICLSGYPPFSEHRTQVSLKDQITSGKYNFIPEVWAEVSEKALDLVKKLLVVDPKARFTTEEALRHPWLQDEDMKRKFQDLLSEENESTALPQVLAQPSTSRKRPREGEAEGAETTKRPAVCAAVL

Consider `Cc1cc(Nc2cc(N3CCN(C)CC3)nc(Sc3ccc(NC(=O)C4CC4)cc3)n2)n[nH]1` [VX-680], for which the inhibition at 1 µM on AKT1 turned out to be 3%; on CDK1/cyclin B it was 5%; at CDK2/cyclin A, 7%; on CHK1, 16%; on CHK2, 4%; at NEK11 it was 11%. Further, the inhibition at 1 µM is -5% at NEK6; 0% at PLK1; 96% on RET; -2% at ROCK1; 95% on TRKA; 2% at WEE1.
